One test deals with human CB2 receptors (Homo sapiens (Human), UniProt P34972). The experiment in a line: functional cAMP assay, CHO cells expressing human CB2. It is filed as cell-based. The gist of the method: (§1)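 Cells are seeded 17-24 h ahead, then preincubated in Krebs Ringer bicarbonate buffer with 1 mM IBMX at 30 °C. Compounds act for 30 min at 30 °C, after which lysis and cAMP detection reagents are added for 2 h at room temperature. Time-resolved FRET gives cAMP content, and EC50 values are fitted from it.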
Sequence of human CB2 receptors (P34972 whole entry): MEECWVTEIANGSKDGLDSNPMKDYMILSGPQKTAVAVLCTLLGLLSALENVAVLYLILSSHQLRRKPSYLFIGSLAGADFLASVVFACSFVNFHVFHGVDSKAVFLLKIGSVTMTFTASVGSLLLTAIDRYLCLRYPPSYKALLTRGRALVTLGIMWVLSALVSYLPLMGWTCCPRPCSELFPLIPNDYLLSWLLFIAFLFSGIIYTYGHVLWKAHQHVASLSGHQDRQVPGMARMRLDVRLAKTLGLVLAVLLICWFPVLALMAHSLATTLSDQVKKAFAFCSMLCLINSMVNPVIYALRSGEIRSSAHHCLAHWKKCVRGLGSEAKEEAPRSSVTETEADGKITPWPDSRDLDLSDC
(In general: Changes in cAMP serve as a functional read-out for many G protein-coupled receptors.)

The target of a further test is human CB1 receptors (Homo sapiens (Human), UniProt P21554). The experiment in a line: functional cAMP assay, CHO cells expressing human CB1. It is filed as cell-based. As to conditions: functional cAMP assay, CHO cells expressing human CB1. The gist of the method: as §1
Sequence of human CB1 receptors (P21554 whole entry): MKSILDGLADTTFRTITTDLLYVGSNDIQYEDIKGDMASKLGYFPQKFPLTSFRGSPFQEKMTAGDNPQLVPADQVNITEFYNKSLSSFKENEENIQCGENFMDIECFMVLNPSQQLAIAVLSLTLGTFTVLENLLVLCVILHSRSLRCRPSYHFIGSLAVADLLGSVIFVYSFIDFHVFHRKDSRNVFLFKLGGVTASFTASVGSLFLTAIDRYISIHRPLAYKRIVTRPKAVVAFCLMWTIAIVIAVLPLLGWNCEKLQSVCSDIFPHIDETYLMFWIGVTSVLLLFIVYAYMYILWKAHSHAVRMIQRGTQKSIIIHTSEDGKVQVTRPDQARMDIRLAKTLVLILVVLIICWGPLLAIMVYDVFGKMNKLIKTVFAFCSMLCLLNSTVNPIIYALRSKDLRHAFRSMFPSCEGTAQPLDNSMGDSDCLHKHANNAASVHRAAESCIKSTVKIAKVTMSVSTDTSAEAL

Structures are written as SMILES. Like-named read-outs stand apart in the source and are kept apart here.

One may read the EC50 as the concentration that produces a half-maximal response. `Cc1nc(C(C)(CS(C)(=O)=O)NC(=O)c2cc(O[C@@H](C)C(F)(F)F)c(C3CC3)cn2)no1` (stereo partly drawn) [Example 81, 5-Cyclopropyl-4-((S)-2,2,2-trifluoro-1-methyl-ethoxy)-pyridine-2-carboxylic acid [2-methanesulfonyl-1-methyl-1-(5-methyl-[1,2,4]oxadiazol-3-yl)-ethyl]-amide]: the values for the EC50 at human CB2 receptors (Human CB2 EC50 (uM)) and on human CB1 receptors (Human CB1 EC50 (uM)) were 0.0053 µM and 0.19 µM, respectively.

As to `CC(C)CC(C)(NC(=O)c1cc(OCC(F)(F)F)c(C2CC2)cn1)C(N)=O` (centres unmarked) [Example 82, 5-Cyclopropyl-4-(2,2,2-trifluoro-ethoxy)-pyridine-2-carboxylic acid (1-carbamoyl-1,3-dimethyl-butyl)-amide], the EC50 on human CB2 receptors (read-out: Human CB2 EC50) is 0.0805 µM; on human CB1 receptors (read-out: Human CB1 EC50), greater than 10 µM.

Consider `Cc1nc(C(C)(CC(C)(C)C)NC(=O)c2cc(OCC(F)(F)F)c(Cl)cn2)no1` (centres unmarked) [Example 83, 5-Chloro-4-(2,2,2-trifluoro-ethoxy)-pyridine-2-carboxylic acid [1,3,3-trimethyl-1-(5-methyl-[1,2,4]oxadiazol-3-yl)-butyl]-amide], for which the EC50 on human CB2 receptors (read-out: Human CB2 EC50) was 0.025 µM; at human CB1 receptors (read-out: Human CB1 EC50), greater than 10 µM.

Consider `Cc1nc(C(C)(CS(C)(=O)=O)NC(=O)c2cc(OCC(F)(F)F)c(C3CC3)cn2)no1` (centres unmarked) [Example 84, 5-Cyclopropyl-4-(2,2,2-trifluoro-ethoxy)-pyridine-2-carboxylic acid [2-methanesulfonyl-1-methyl-1-(5-methyl-[1,2,4]oxadiazol-3-yl)-ethyl]-amide], for which the EC50 is 0.0488 µM on human CB2 receptors (read-out: Human CB2 EC50) and greater than 10 µM on human CB1 receptors (read-out: Human CB1 EC50).

Turning to `CN(C)C(=O)CC1(NC(=O)c2cc(OCC(F)(F)F)c(Cl)cn2)COC1` [Example 85, 5-Chloro-4-(2,2,2-trifluoro-ethoxy)-pyridine-2-carboxylic acid (3-dimethylcarbamoylmethyl-oxetan-3-yl)-amide], the EC50 is 0.362 µM at human CB2 receptors (read-out: Human CB2 EC50) and greater than 10 µM on human CB1 receptors (read-out: Human CB1 EC50).

For the compound `CN(C(=O)c1cc(-c2cccc(Cl)c2)ccn1)C(C)(C)C` [Example 86, 4-(3-Chloro-phenyl)-pyridine-2-carboxylic acid tert-butyl-methyl-amide], the EC50 is 0.145 µM at human CB2 receptors (read-out: Human CB2 EC50) and greater than 10 µM at human CB1 receptors (read-out: Human CB1 EC50).

With `Cc1nc(C(C)(CC2CC2)NC(=O)c2cc(OCC(F)(F)F)c(Cl)cn2)no1` (centres unmarked) [Example 89, 5-Chloro-4-(2,2,2-trifluoro-ethoxy)-pyridine-2-carboxylic acid [2-cyclopropyl-1-methyl-1-(5-methyl-[1,2,4]oxadiazol-3-yl)-ethyl]-amide], the concentration giving a half-maximal response (EC50) on human CB2 receptors (read-out: Human CB2 EC50) was 0.0483 µM; on human CB1 receptors (read-out: Human CB1 EC50), greater than 10 µM.

As for `Cc1nc(C(C)(CC2CC2)NC(=O)c2cc(OCC(F)(F)F)c(N3CC(F)(F)C3)cn2)no1` (centres unmarked) [Example 90, 5-(3,3-Difluoro-azetidin-1-yl)-4-(2,2,2-trifluoro-ethoxy)-pyridine-2-carboxylic acid [2-cyclopropyl-1-methyl-1-(5-methyl-[1,2,4]oxadiazol-3-yl)-ethyl]-amide], the EC50 is 0.0177 µM at human CB2 receptors (read-out: Human CB2 EC50) and greater than 10 µM at human CB1 receptors (read-out: Human CB1 EC50).

For the compound `Cc1nc(C(C)(CS(C)(=O)=O)NC(=O)c2cc(OCC(F)(F)F)c(N3CC(F)(F)C3)cn2)no1` (centres unmarked) [Example 95, 5-(3,3-Difluoro-azetidin-1-yl)-4-(2,2,2-trifluoro-ethoxy)-pyridine-2-carboxylic acid [2-methanesulfonyl-1-methyl-1-(5-methyl-[1,2,4]oxadiazol-3-yl)-ethyl]-amide], the EC50 was 0.0554 µM on human CB2 receptors (read-out: Human CB2 EC50) and greater than 10 µM on human CB1 receptors (read-out: Human CB1 EC50).

For `Cc1nc(C(C)(NC(=O)c2cc(O[C@@H](C)C(F)(F)F)c(N3CC(F)(F)C3)cn2)C2CC2)no1` (stereo partly drawn) [Example 96, 5-(3,3-Difluoro-azetidin-1-yl)-4-((S)-2,2,2-trifluoro-1-methyl-ethoxy)-pyridine-2-carboxylic acid [1-cyclopropyl-1-(5-methyl-[1,2,4]oxadiazol-3-yl)-ethyl]-amide], the EC50 on human CB2 receptors (read-out: Human CB2 EC50) is 0.0014 µM; at human CB1 receptors (read-out: Human CB1 EC50), 0.11 µM.

Take `Cc1nc(C(C)(CC(C)(C)C)NC(=O)c2cc(OCC(F)(F)F)c(C3CC3)cn2)no1` (centres unmarked) [Example 97, 5-Cyclopropyl-4-(2,2,2-trifluoro-ethoxy)-pyridine-2-carboxylic acid [1,3,3-trimethyl-1-(5-methyl-[1,2,4]oxadiazol-3-yl)-butyl]-amide]: the EC50 is 0.0059 µM on human CB2 receptors (read-out: Human CB2 EC50) and greater than 10 µM at human CB1 receptors (read-out: Human CB1 EC50).

As for `Cc1nc(C(C)(CC2CC2)NC(=O)c2cc(O[C@@H](C)C(F)(F)F)c(C3CC3)cn2)no1` (stereo partly drawn) [Example 100, 5-Cyclopropyl-4-((S)-2,2,2-trifluoro-1-methyl-ethoxy)-pyridine-2-carboxylic acid [2-cyclopropyl-1-methyl-1-(5-methyl-[1,2,4]oxadiazol-3-yl)-ethyl]-amide], the concentration giving a half-maximal response (EC50) was 0.0006 µM at human CB2 receptors (read-out: Human CB2 EC50) and greater than 10 µM on human CB1 receptors (read-out: Human CB1 EC50).

On to `Cc1nc(C(C)(CC2CC2)NC(=O)c2cc(O[C@@H](C)C(F)(F)F)c(C3CC3)cn2)no1` (stereo partly drawn) [Example 101, 5-Cyclopropyl-4-((S)-2,2,2-trifluoro-1-methyl-ethoxy)-pyridine-2-carboxylic acid [2-cyclopropyl-1-methyl-1-(5-methyl-[1,2,4]oxadiazol-3-yl)-ethyl]-amide], for which the EC50 was determined as 0.0007 µM on human CB2 receptors (read-out: Human CB2 EC50) and 0.21 µM at human CB1 receptors (read-out: Human CB1 EC50).

For the compound `Cc1nc(C(C)(CS(C)(=O)=O)NC(=O)c2cc(O[C@@H](C)C(F)(F)F)c(N3CC(F)(F)C3)cn2)no1` (stereo partly drawn) [Example 102, 5-(3,3-Difluoro-azetidin-1-yl)-4-((S)-2,2,2-trifluoro-1-methyl-ethoxy)-pyridine-2-carboxylic acid [2-methanesulfonyl-1-methyl-1-(5-methyl-[1,2,4]oxadiazol-3-yl)-ethyl]-amide], the EC50 was 0.116 µM at human CB2 receptors (read-out: Human CB2 EC50) and greater than 10 µM at human CB1 receptors (read-out: Human CB1 EC50).

In the case of `Cc1nc(C(C)(CS(C)(=O)=O)NC(=O)c2cc(O[C@@H](C)C(F)(F)F)c(C3CC3)cn2)no1` (stereo partly drawn) [Example 103, 5-Cyclopropyl-4-((S)-2,2,2-trifluoro-1-methyl-ethoxy)-pyridine-2-carboxylic acid [2-methanesulfonyl-1-methyl-1-(5-methyl-[1,2,4]oxadiazol-3-yl)-ethyl]-amide], the EC50 on human CB2 receptors (read-out: Human CB2 EC50) is 0.0034 µM; on human CB1 receptors (read-out: Human CB1 EC50), 0.48 µM.

`CCN(C(=O)c1cc(OCC2CC2)c(C2CC2)cn1)C(C)(C)C` [Example 106, 5-Cyclopropyl-4-cyclopropylmethoxy-pyridine-2-carboxylic acid tert-butyl-ethyl-amide]: the EC50 is 0.0095 µM at human CB2 receptors (read-out: Human CB2 EC50) and greater than 10 µM on human CB1 receptors (read-out: Human CB1 EC50).

Consider `CCN(C(=O)c1cc(OCC(F)(F)F)c(C2CC2)cn1)C(C)(C)C` [Example 107, 5-Cyclopropyl-4-(2,2,2-trifluoro-ethoxy)-pyridine-2-carboxylic acid tert-butyl-ethyl-amide], for which the EC50 is 0.0822 µM at human CB2 receptors (read-out: Human CB2 EC50) and greater than 10 µM on human CB1 receptors (read-out: Human CB1 EC50).

In the case of `Cc1nc(C(C)(CC2CC2)NC(=O)c2cc(OCC(F)(F)F)c(C3CCC3)cn2)no1` (centres unmarked) [Example 108, 5-Cyclobutyl-4-(2,2,2-trifluoro-ethoxy)-pyridine-2-carboxylic acid [2-cyclopropyl-1-methyl-1-(5-methyl-[1,2,4]oxadiazol-3-yl)-ethyl]-amide], the EC50 at human CB2 receptors (read-out: Human CB2 EC50) came out at 0.0027 µM; on human CB1 receptors (read-out: Human CB1 EC50) it was 0.79 µM.

With `Cc1nc(C(C)(CS(C)(=O)=O)NC(=O)c2cc(OCC(F)(F)F)c(C3CCC3)cn2)no1` (centres unmarked) [Example 109, 5-Cyclobutyl-4-(2,2,2-trifluoro-ethoxy)-pyridine-2-carboxylic acid [2-methanesulfonyl-1-methyl-1-(5-methyl-[1,2,4]oxadiazol-3-yl)-ethyl]-amide], the EC50 at human CB2 receptors (read-out: Human CB2 EC50) is 0.0157 µM; on human CB1 receptors (read-out: Human CB1 EC50) it was greater than 10 µM.

(Values after US9409866B2, “Pyridine-2-amides useful as CB2 agonists” (Hoffmann-La Roche Inc., priority 2012, dated 2016).)
